Common to all, as to assay type: in vivo
The subject of one assay is rice seeds. As to the kind of experiment: Rice seed germination experiment (seed soaking method). How it is done: (§1) Test Method: Ministerial Standard NYT 2061.1-2011, Seed Soaking Method 10 mg of each sample was weighed and put into a 10 ml volumetric flask, dissolved with DMSO, and diluted to volume after being dissolved completely. 1 ml of each diluted monomer solution was put into a 50-1000 ml volumetric flask, added with water, blended and diluted to volume so as to prepare a solution with a concentration of 2 ppm, 0.2 ppm, or 0.02 ppm. The method was substantially the same as that in Example 2 except that rice seeds were used as the crop seeds. The method was substantially the same as that in Example 2, except that the test samples were monomer chlorin e6 and control monomer chlorin e6 iron (III), both at a concentration of 0.02 ppm and the test seeds were corn, soybean, rice and wheat seeds. The preparation method of the control monomer was conducted by referring to CN102273467B.

Another assay has as its system corn seeds. As to the kind of experiment: Corn seed germination experiment (seed soaking method, NYT 2061.1-2011). The source says: Test Method: Ministerial Standard NYT 2061.1-2011, Seed Soaking Method
Test samples: crude chlorin, and dihydroporphin monomers including chlorin fG, chlorin e6, pheophorbide, pyropheophorbide, chlorin e4, purpurin-7, purpurin-18, chlorin p6, 15-formyl rhodochlorin, 15-oxymethyl rhodochlorin, 15-oxymethyl rhodochlorin lactone A, 15-hydroxymethyl rhodochlorin, and 15-hydroxymethyl rhodochlorin lactone B, and pure water and iron chlorin e6 (China Pesticide Registration Certificate Number: PD20190031) were used as blank and positive control.
10 mg of each sample was weighed and put into a 10 ml volumetric flask, dissolved with DMSO, and diluted to volume after being dissolved completely. 1 ml of each diluted monomer solution was put into a 50-1000 ml volumetric flask, added with water, blended and diluted to volume so as to prepare a solution with a concentration of 2 ppm, 0.2 ppm, or 0.02 ppm.
The method was substantially the same as that in Example 2, except that the test samples were monomer chlorin e6 and control monomer chlorin e6 iron (III), both at a concentration of 0.02 ppm and the test seeds were corn, soybean, rice and wheat seeds. The preparation method of the control monomer was conducted by referring to CN102273467B.

The subject of the next assay is wheat seeds. As to the kind of experiment: Wheat seed germination experiment (seed soaking method). How it is done:
as §1, with “that wheat” for “that rice”

For the next assay, the system named is soybean seeds. The assay can be described thus: Soybean seed germination experiment (seed soaking method). How it is done: Test Method: Ministerial Standard NYT 2061.1-2011, Seed Soaking Method 10 mg of each sample was weighed and put into a 10 ml volumetric flask, dissolved with DMSO, and diluted to volume after being dissolved completely. 1 ml of each diluted monomer solution was put into a 50-1000 ml volumetric flask, added with water, blended and diluted to volume so as to prepare a solution with a concentration of 2 ppm, 0.2 ppm, or 0.02 ppm. The method was substantially the same as that in Example 1 except that soybean seeds were used as the crop seeds, and the samples were crude chlorin, pyropheophorbide, chlorin f, chlorin e6, chlorin e4, purpurin-18, 15-oxymethyl rhodochlorin lactone, and 15-hydroxymethyl rhodochlorin lactone. The method was substantially the same as that in Example 2, except that the test samples were monomer chlorin e6 and control monomer chlorin e6 iron (III), both at a concentration of 0.02 ppm and the test seeds were corn, soybean, rice and wheat seeds. The preparation method of the control monomer was conducted by referring to CN102273467B.

Setting [1] is: 0.02 ppm sample solution, seed soaking.
Where [2] appears, read: 0.2 ppm sample solution, seed soaking.
Where [3] appears, read: 2 ppm sample solution, seed soaking.
[4] abbreviates: soybean seeds, 0.02 ppm sample solution.
Setting [5] is: soybean seeds, 0.2 ppm sample solution.
Where [6] appears, read: soybean seeds, 2 ppm sample solution.
Setting [7] is: comparison of the monomers, 0.02 ppm.
Where [8] appears, read: comparison of the monomers, 0.02 ppm, listed as chlorin e6.

As for 15-oxymethyl rhodochlorin lactone, the Germination rate % with rice seeds (0.02 ppm sample solution) was 72%; with rice seeds (2 ppm sample solution), 70%; in the assay with corn seeds (setting [1]), 54%; in the assay on corn seeds (setting [2]), 66%; with corn seeds (setting [3]) it was 58%; in the assay with wheat seeds (0.2 ppm sample solution), 94%. Moreover, the Germination rate % in the assay on wheat seeds (2 ppm sample solution) came to 82%; in the assay with soybean seeds (setting [4]) it was 58%; with soybean seeds (setting [5]) it was 58%; with soybean seeds (setting [6]), 60%.
Regarding `C=Cc1c(C)c2cc3nc(c4c5[nH]c(cc6nc(cc1[nH]2)C(C)=C6CC)c(C)c5C(=O)OC4)C(CCC(=O)O)C3C` (centres unmarked) [15-hydroxymethyl rhodochlorin lactone], the Germination rate % in the assay with rice seeds (0.02 ppm sample solution) is given as 72%; in the assay with rice seeds (0.2 ppm sample solution), 74%; with rice seeds (2 ppm sample solution), 68%; with corn seeds (setting [1]), 60%; with corn seeds (setting [2]), 54%; in the assay with corn seeds (setting [3]) it was 48%. Moreover, the Germination rate % is listed as 86% with wheat seeds (0.02 ppm sample solution), 96% in the assay on wheat seeds (0.2 ppm sample solution), 92% in the assay on wheat seeds (2 ppm sample solution) and 60% in the assay on soybean seeds (setting [5]).
Regarding `C=Cc1c(C)c2cc3nc(c(C)c4[nH]c(cc5nc(cc1[nH]2)C(C)=C5CC)c(C)c4C(=O)O)[C@@H](CCC(=O)O)[C@@H]3C` [Chlorin e4, chlorin e4], the Germination rate % in the assay on rice seeds (0.02 ppm sample solution) is 71%; in the assay with rice seeds (0.2 ppm sample solution) it was 76%; in the assay with rice seeds (2 ppm sample solution), 77%; with corn seeds (setting [1]), 57%; in the assay on corn seeds (setting [2]), 55%; in the assay with corn seeds (setting [3]) it was 48%. In addition, the Germination rate % is 93% with wheat seeds (0.02 ppm sample solution); 98% with wheat seeds (0.2 ppm sample solution); 97% with wheat seeds (2 ppm sample solution); 67% in the assay with soybean seeds (setting [4]); 66% with soybean seeds (setting [5]); 65% with soybean seeds (setting [6]).
Consider `C=Cc1c(C)c2cc3nc(c(CC(=O)O)c4[nH]c(cc5nc(cc1[nH]2)C(C)=C5CC)c(C)c4C(=O)O)[C@@H](CCC(=O)O)[C@@H]3C` [Chlorin e6, chlorin e6], for which the Germination rate % with rice seeds (0.02 ppm sample solution) is given as 70%; with rice seeds (0.2 ppm sample solution), 74%; in the assay with rice seeds (2 ppm sample solution), 68%; with rice seeds (setting [7]), 76%; in the assay on rice seeds (setting [8]), “all better than those for the iron chelate monomer chlorin e6 iron (III)”; in the assay with corn seeds (setting [1]), 58%. Further, the Germination rate % was 42% in the assay on corn seeds (setting [2]); 46% in the assay with corn seeds (setting [3]); 58% in the assay with corn seeds (setting [7]); “all better than those for the iron chelate monomer chlorin e6 iron (III)” in the assay with corn seeds (setting [8]); 94% with wheat seeds (0.02 ppm sample solution); “best germination effect” in the assay on wheat seeds (0.02 ppm sample solution, listed as chlorin e6). Moreover, the Germination rate % in the assay with wheat seeds (0.2 ppm sample solution) was 96%; with wheat seeds (2 ppm sample solution), 90%; in the assay on wheat seeds (setting [7]), 94%; in the assay on wheat seeds (setting [8]), “all better than those for the iron chelate monomer chlorin e6 iron (III)”; in the assay with soybean seeds (comparison of the monomers, soy bean seeds, 0.02 ppm), 66%; with soybean seeds (comparison of the monomers, soy bean seeds, 0.02 ppm, listed as chlorin e6), “all better than those for the iron chelate monomer chlorin e6 iron (III)”. For the same molecule, the Germination rate % stood at 60% in the assay on soybean seeds (setting [4]), 59% in the assay with soybean seeds (setting [5]) and 60% with soybean seeds (setting [6]).
For `C=Cc1c(C)c2cc3nc(c4c5[nH]c(cc6nc(cc1[nH]2)C(C)=C6CC)c(C)c5C(=O)OC4=O)[C@@H](CCC(=O)O)[C@@H]3C` [Purpurin-18, purpurin-18], the Germination rate % is listed as 77% in the assay on rice seeds (0.02 ppm sample solution); 78% in the assay on rice seeds (0.2 ppm sample solution); 76% with rice seeds (2 ppm sample solution); 55% in the assay on corn seeds (setting [1]); 58% in the assay with corn seeds (setting [2]); 53% in the assay on corn seeds (setting [3]). The Germination rate % stood at 97% in the assay on wheat seeds (0.02 ppm sample solution); 97% in the assay on wheat seeds (0.2 ppm sample solution); 95% with wheat seeds (2 ppm sample solution); 66% with soybean seeds (setting [4]); 65% in the assay with soybean seeds (setting [5]); 67% in the assay with soybean seeds (setting [6]).

The values above are taken from US12279618B2, “Use of dihydroporphin derived from chlorophyll as plant growth regulator” (Anqing Better Bioengineering Co., Ltd, priority 2019, dated 2025).
